Source: article PMC9106008, “Design, Synthesis and Biological Evaluation of N-phenylindole Derivatives as Pks13 Inhibitors againstMycobacterium tuberculosis” (Molecules, 2022)
In brackets after ≈: the same amount, converted by molar mass. Where two headings read alike, the source gives them in different places.

Key:
Pks13-TE = Pks13-TE (Mycobacterium tuberculosis, UniProt I6X8D2); experiment: biochemical; assay type: binding; details: Pks13-TE 30 µM, 3% DMSO, average of three measurements; for ΔTm at 150 µM: compound 150 µM (1:5); for ΔTm at 300 µM: compound 300 µM (1:10)
Pks13-TE, sequence (I6X8D2 1451-1733): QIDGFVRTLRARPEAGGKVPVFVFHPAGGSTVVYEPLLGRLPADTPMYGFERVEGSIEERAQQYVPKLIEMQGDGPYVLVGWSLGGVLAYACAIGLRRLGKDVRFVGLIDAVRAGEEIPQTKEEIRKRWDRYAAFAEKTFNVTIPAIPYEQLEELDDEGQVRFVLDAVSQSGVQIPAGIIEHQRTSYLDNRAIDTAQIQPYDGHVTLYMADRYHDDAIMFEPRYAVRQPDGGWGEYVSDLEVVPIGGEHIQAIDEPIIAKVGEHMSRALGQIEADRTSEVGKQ

Mtb H37Rv strain [1] = details: MABA, cited from earlier work
Mtb H37Rv strain [2] = experiment: microplate alamar blue assay (MABA), MIC; assay type: cell-based, Mycobacterium tuberculosis; details: lowest concentration leading to at least 90% inhibition of bacterial growth signal, average of three measurements
[3] = human, microsomes, 0.1 µM, pH 7.4; for Remaining (T = 60 min): 1 h
in vitro = details: human, microsomes, pH 7.4
[4] = liver microsome stability assay; details: for T1/2 / Remaining (T = 60 min): human liver microsomes; for T1/2: 0.1 µM compound, NADPH 1 mM, 37 °C; for Remaining (T = 60 min): 60 min incubation
[5] = Mycobacterium tuberculosis, H37RV, read-out: MIC

Compound: O=c1oc2cc(O)ccc2c2oc3ccc(O)c(CN4CCCCC4)c3c12 [Compound 7, reference compound]
- ΔTm at 150 µM (Pks13-TE): 11.4 ± 0.03 °C
- ΔTm at 300 µM (Pks13-TE): 10.5 ± 0.01 °C
- MIC (Mtb H37Rv strain [1]; reference compounds for comparison): 0.0039 µg/mL (≈ 0.0107 µM)

Compound: CCOC(=O)c1c(-c2ccccc2)[nH]c2ccc(O)c(CN3CCCCC3)c12 [Compound 9]
- MIC (Mtb H37Rv strain [1]; reference compound for comparison): 32 µg/mL (≈ 84.6 µM)

Compound: CCOC(=O)c1c(-c2ccc(OC)cc2)[nH]c2ccc(O)c(CN3CCCCC3)c12 [Compound 13, Ethyl 5-hydroxy-2-(4-methoxyphenyl)-4-(piperidin-1-ylmethyl)-1H-indole-3-carboxylate]
- MIC (Mtb H37Rv strain [2]; [5]): 32 µg/mL (≈ 78.3 µM)

Compound: CCOC(=O)c1c(-c2ccc(O)cc2)[nH]c2ccc(O)c(CN3CCCCC3)c12 [Compound 14, Ethyl 5-hydroxy-2-(4-hydroxyphenyl)-4-(piperidin-1-ylmethyl)-1H-indole-3-carboxylate]
- ΔTm at 150 µM (Pks13-TE): 5.5 ± 0.04 °C
- ΔTm at 300 µM (Pks13-TE): 4.9 ± 0.02 °C

Compound: CCOC(=O)c1c(-c2ccc(OC)cc2)n(-c2ccccc2)c2ccc(O)c(CN3CCCCC3)c12 [Compound 17, Ethyl 5-hydroxy-2-(4-methoxyphenyl)-1-phenyl-4-(piperidin-1-ylmethyl)-1H-indole-3-carboxylate]
- MIC (Mtb H37Rv strain [2]; [5]): 4 µg/mL (≈ 8.25 µM)

Compound: CCOC(=O)c1c(-c2ccc(O)cc2)n(-c2ccccc2)c2ccc(O)c(CN3CCCCC3)c12 [Compound 18, Ethyl 5-hydroxy-2-(4-hydroxyphenyl)-1-phenyl-4-(piperidin-1-ylmethyl)-1H-indole-3-carboxylate]
- MIC (Mtb H37Rv strain [2]; [5]): 2 to 32 µg/mL (≈ 4.25 to 68 µM)
- MIC (Mtb H37Rv strain [2]): 2 µg/mL (≈ 4.25 µM)

Compound: COc1ccc(-c2c(C(C)=O)c3c(CN4CCCCC4)c(O)ccc3n2-c2ccccc2)cc1 [Compound 19, 1-(5-hydroxy-2-(4-methoxyphenyl)-1-phenyl-4-(piperidin-1-ylmethyl)-1H-indol-3-yl) ethan-1-one]
- MIC (Mtb H37Rv strain [2]; [5]): 4 µg/mL (≈ 8.8 µM)

Compound: CC(=O)c1c(-c2ccc(O)cc2)n(-c2ccccc2)c2ccc(O)c(CN3CCCCC3)c12 [Compound 20, 1-(5-hydroxy-2-(4-hydroxyphenyl)-1-phenyl-4-(piperidin-1-ylmethyl)-1H-indol-3-yl) ethan-1-one]
- MIC (Mtb H37Rv strain [2]; [5]): 16 µg/mL (≈ 36.3 µM)

Compound: CNC(=O)c1c(-c2ccc(OC)cc2)n(-c2ccccc2)c2ccc(O)c(CN3CCCCC3)c12 [Compound 22, 5-hydroxy-2-(4-methoxyphenyl)-N-methyl-1-phenyl-4-(piperidin-1-ylmethyl)-1H-indole-3-carboxamide]
- MIC (Mtb H37Rv strain [2]; [5]): 16 µg/mL (≈ 34.1 µM)

Compound: CCNC(=O)c1c(-c2ccc(OC)cc2)n(-c2ccccc2)c2ccc(O)c(CN3CCCCC3)c12 [Compound 23, N-ethyl-5-hydroxy-2-(4-methoxyphenyl)-1-phenyl-4-(piperidin-1-ylmethyl)-1H-indole-3-carboxamide]
- MIC (Mtb H37Rv strain [2]; [5]): 16 µg/mL (≈ 33.1 µM)

Compound: CNC(=O)c1c(-c2ccc(O)cc2)n(-c2ccccc2)c2ccc(O)c(CN3CCCCC3)c12 [Compound 24, 5-hydroxy-2-(4-hydroxyphenyl)-N-methyl-1-phenyl-4-(piperidin-1-ylmethyl)-1H-indole-3-carboxamide]
- MIC (Mtb H37Rv strain [2]; [5]): 4 µg/mL (≈ 8.78 µM)

Compound: CCNC(=O)c1c(-c2ccc(O)cc2)n(-c2ccccc2)c2ccc(O)c(CN3CCCCC3)c12 [Compound 25, N-ethyl-5-hydroxy-2-(4-hydroxyphenyl)-1-phenyl-4-(piperidin-1-ylmethyl)-1H-indole-3-carboxamide]
- MIC (Mtb H37Rv strain [2]; [5]): 8 µg/mL (≈ 17 µM)

Compound: CCOC(=O)c1c(C)n(-c2ccccc2)c2ccc(O)c(CN3CCCCC3)c12 [Compound 28, Ethyl 5-hydroxy-2-methyl-1-phenyl-4-(piperidin-1-ylmethyl)-1H-indole-3-carboxylate]
- MIC (Mtb H37Rv strain [2]; [5]): 8 µg/mL (≈ 20.4 µM)
- ΔTm at 150 µM (Pks13-TE): 8.6 ± 0.01 °C
- ΔTm at 300 µM (Pks13-TE): 7.8 ± 0.04 °C

Compound: CNC(=O)c1c(C)n(-c2ccccc2)c2ccc(O)c(CN3CCCCC3)c12 [Compound 29, 5-hydroxy-N,2-dimethyl-1-phenyl-4-(piperidin-1-ylmethyl)-1H-indole-3-carboxamide]
- MIC (Mtb H37Rv strain [2]; [5]): > 64 µg/mL
- MIC (Mtb H37Rv strain [2]): >64 µg/mL

Compound: CNC(=O)c1c(C)n(-c2ccc(OC)cc2)c2ccc(O)c(CN3CCCCC3)c12 [Compound 30, 5-hydroxy-1-(4-methoxyphenyl)-N,2-dimethyl-4-(piperidin-1-ylmethyl)-1H-indole-3-carboxamide]
- MIC (Mtb H37Rv strain [2]; [5]): 16 µg/mL (≈ 39.3 µM)

Compound: CCOC(=O)c1c(C)n(-c2ccc(C)cc2)c2ccc(O)c(CN3CCCCC3)c12 [Compound 31, Ethyl 5-hydroxy-2-methyl-4-(piperidin-1-ylmethyl)-1-(p-tolyl)-1H-indole-3-carboxylate]
- MIC (Mtb H37Rv strain [2]; [5]): 0.5 to 8 µg/mL (≈ 1.23 to 19.7 µM)
- MIC (Mtb H37Rv strain [2]): 1 µg/mL (≈ 2.46 µM)

Compound: CCOC(=O)c1c(C)n(-c2ccc(OC)cc2)c2ccc(O)c(CN3CCCCC3)c12 [Compound 34, Ethyl 5-hydroxy-1-(4-methoxyphenyl)-2-methyl-4-(piperidin-1-ylmethyl)-1H-indole-3-carboxylate]
- MIC (Mtb H37Rv strain [2]; [5]): 0.5 to 8 µg/mL (≈ 1.18 to 18.9 µM)
- MIC (Mtb H37Rv strain [2]): 1 µg/mL (≈ 2.37 µM)

Compound: CCOC(=O)c1c(C)n(-c2ccc(F)cc2)c2ccc(O)c(CN3CCCCC3)c12 [Compound 37, Ethyl 1-(4-fluorophenyl)-5-hydroxy-2-methyl-4-(piperidin-1-ylmethyl)-1H-indole-3-carboxylate]
- MIC (Mtb H37Rv strain [2]; [5]): 0.5 to 8 µg/mL (≈ 1.22 to 19.5 µM)
- MIC (Mtb H37Rv strain [2]): 1 µg/mL (≈ 2.44 µM)

Compound: CC(=O)c1c(C)n(-c2ccc(-c3ccccc3)cc2)c2ccc(O)c(CN3CCCCC3)c12 [Compound 45, 1-(1-([1,1′-biphenyl]-4-yl)-5-hydroxy-2-methyl-4-(piperidin-1-ylmethyl)-1H-indol-3-yl)ethan-1-one]
- MIC (Mtb H37Rv strain [2]; [5]): 0.0625 µg/mL (≈ 0.143 µM)
- ΔTm at 150 µM (Pks13-TE): 14 ± 0.04 °C
- ΔTm at 300 µM (Pks13-TE): 13.2 ± 0.65 °C

Compound: CC(=O)c1c(C)n(-c2ccc(N3CCCCC3)cc2)c2ccc(O)c(CN3CCCCC3)c12 [Compound 48, 1-(5-hydroxy-2-methyl-1-(4-(piperidin-1-yl)phenyl)-4-(piperidin-1-ylmethyl)-1H-indol-3-yl) ethan-1-one]
- MIC (Mtb H37Rv strain [2]; [5]): 0.125 µg/mL (≈ 0.281 µM)
- ΔTm at 150 µM (Pks13-TE): 14.6 ± 0.04 °C
- ΔTm at 300 µM (Pks13-TE): 14 ± 0.01 °C
- Remaining (T = 60 min) [3]: 11.3%
- CLint scaled at 0.1 µM (in vitro): 60.2 mL/min/kg
- microsomal CLint at 0.1 µM (in vitro): 66.9 µL/min/mg
- half-life at 0.1 µM ([4]; human, liver microsomes, pH 7.4): 20.7 min

Compound: CCOC(=O)c1c(C)n(-c2ccc(N(C)C)cc2)c2ccc(O)c(CN3CCCCC3)c12 [Compound 49, Ethyl 1-(4-(dimethylamino)phenyl)-5-hydroxy-2-methyl-4-(piperidin-1-ylmethyl)-1H-indole-3-carboxylate]
- MIC (Mtb H37Rv strain [2]; [5]): 0.5 to 8 µg/mL (≈ 1.15 to 18.4 µM)
- MIC (Mtb H37Rv strain [2]): 1 µg/mL (≈ 2.3 µM)

Compound: CC(=O)c1c(C)n(-c2ccc(N(C)C)cc2)c2ccc(O)c(CN3CCCCC3)c12 [Compound 50, 1-(1-(4-(dimethylamino)phenyl)-5-hydroxy-2-methyl-4-(piperidin-1-ylmethyl)-1H-indol-3-yl)ethan-1-one]
- MIC (Mtb H37Rv strain [2]; [5]): 0.5 µg/mL (≈ 1.23 µM)

Compound: CC(=O)c1c(C)n(-c2ccc(N(C)C)cc2)c2ccc(O)c(CN(C)C)c12 [Compound 51, 1-(4-((dimethylamino)methyl)-1-(4-(dimethylamino)phenyl)-5-hydroxy-2-methyl-1H-indol-3-yl)ethan-1-one]
- MIC (Mtb H37Rv strain [2]; [5]): 2 µg/mL (≈ 5.47 µM)

Compound: CC(=O)c1c(C)n(-c2ccc(N(C)C)cc2)c2ccc(O)c(CN3CCCC3)c12 [Compound 52, 1-(1-(4-(dimethylamino)phenyl)-5-hydroxy-2-methyl-4-(pyrrolidin-1-ylmethyl)-1H-indol-3-yl)ethan-1-one]
- MIC (Mtb H37Rv strain [2]; [5]): 0.5 µg/mL (≈ 1.28 µM)
- ΔTm at 150 µM (Pks13-TE): 11.4 ± 0.02 °C
- ΔTm at 300 µM (Pks13-TE): 10.3 ± 0.04 °C

Compound: CC(=O)c1c(C)n(-c2ccc(N(C)C)cc2)c2ccc(O)c(CN3CCC(C)CC3)c12 [Compound 53, 1-(1-(4-(dimethylamino)phenyl)-5-hydroxy-2-methyl-4-((4-methylpiperidin-1-yl)methyl)-1H-indol-3-yl)ethan-1-one]
- MIC (Mtb H37Rv strain [2]; [5]): 1 µg/mL (≈ 2.38 µM)

Compound: CC(=O)c1c(C)n(-c2ccc(C(C)C)cc2)c2ccc(O)c(CN3CCCCC3)c12 [Compound 54, 1-(5-hydroxy-1-(4-isopropylphenyl)-2-methyl-4-(piperidin-1-ylmethyl)-1H-indol-3-yl)ethan-1-one]
- MIC (Mtb H37Rv strain [2]; [5]): 0.125 µg/mL (≈ 0.309 µM)

Compound: CC(=O)c1c(C)n(-c2ccc(C(C)(C)C)cc2)c2ccc(O)c(CN3CCCCC3)c12 [Compound 55, 1-(1-(4-(tert-butyl)phenyl)-5-hydroxy-2-methyl-4-(piperidin-1-ylmethyl)-1H-indol-3-yl)ethan-1-one]
- MIC (Mtb H37Rv strain [2]; [5]): 0.125 µg/mL (≈ 0.299 µM)

Compound: CC(=O)c1c(C)n(-c2ccc(C(C)(C)C)cc2)c2ccc(O)c(CN3CCCC3)c12 [Compound 56, 1-(1-(4-(tert-butyl)phenyl)-5-hydroxy-2-methyl-4-(pyrrolidin-1-ylmethyl)-1H-indol-3-yl)ethan-1-one]
- MIC (Mtb H37Rv strain [2]; [5]): 0.25 µg/mL (≈ 0.618 µM)

Compound: CC(=O)c1c(C)n(-c2ccc(Br)cc2)c2ccc(O)c(CN3CCCCC3)c12 [Compound 58, 1-(1-(4-bromophenyl)-5-hydroxy-2-methyl-4-(piperidin-1-ylmethyl)-1H-indol-3-yl)ethan-1-one]
- MIC (Mtb H37Rv strain [2]; [5]): 0.125 µg/mL (≈ 0.283 µM)
- ΔTm at 150 µM (Pks13-TE): 9.5 ± 0.04 °C
- ΔTm at 300 µM (Pks13-TE): 7.6 ± 0.01 °C
- CLint(liver) [3]: 21.5 mL/min/kg
- CLint(mic) [3]: 23.9 µL/min/mg
- Remaining (T = 60 min) [3]: 47.3%
- T1/2 [4]: 58.0 min

Compound: O=C(O)Cc1ccccc1Nc1c(Cl)cccc1Cl [Diclofenac]
- Remaining (T = 60 min) [4]: 0.1%
- CLint(liver) ([4]; human, scaled from CLint(mic) with 45 mg microsomal protein/g liver, 20 g liver/kg): 223.1 mL/min/kg

Compound: Ethyl 1-(4-(tert-butyl)phenyl)-5-hydroxy-2-methyl-4-(piperidin-1-ylmethyl)-1H-indole-3-carboxylate [Compound 57]
- MIC (Mtb H37Rv strain [2]): 0.5 µg/mL
